{"source": "patent US10183938B2", "about": "“Geminal substituted quinuclidine amide compounds as agonists of α-7 nicotonic acetylcholine receptors” (AXOVANT SCIENCES GMBH, priority 2014, dated 2019)", "note": "Counter-ions that a name gives are not always drawn."}
{"molecular_target": "human 5-HT3 serotonin receptors (Homo sapiens (Human), UniProt P46098)", "sequence (P46098 24-478)": "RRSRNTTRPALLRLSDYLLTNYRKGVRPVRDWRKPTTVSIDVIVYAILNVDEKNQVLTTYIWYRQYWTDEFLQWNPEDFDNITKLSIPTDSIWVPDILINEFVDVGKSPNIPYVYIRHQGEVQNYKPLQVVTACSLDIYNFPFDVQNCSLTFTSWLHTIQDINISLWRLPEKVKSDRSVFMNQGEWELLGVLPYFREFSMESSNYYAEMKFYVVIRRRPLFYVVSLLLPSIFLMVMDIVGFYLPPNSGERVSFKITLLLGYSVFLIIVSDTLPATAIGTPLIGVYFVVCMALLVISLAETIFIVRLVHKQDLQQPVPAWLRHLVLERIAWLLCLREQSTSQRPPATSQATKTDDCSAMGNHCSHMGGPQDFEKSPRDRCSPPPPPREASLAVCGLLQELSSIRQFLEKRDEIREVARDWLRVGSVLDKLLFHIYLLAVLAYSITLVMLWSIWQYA", "assay": "[3H]BRL 43694 competition binding", "conditions": "CHO cell membranes, [3H]BRL 43694, Cheng Prusoff; read-out: h-5HT3 Ki", "units": {"Ki": "nM"}}
{"smiles": "COc1c(Cl)ccc2cc(C(=O)N[C@@H]3C4CCN(CC4)C34CC4)sc12", "note": "[(R)-192, (R)-6-chloro-7-methoxy-N-(1′-azaspiro[cyclopropane-1,2′-bicyclo[2.2.2]octan]-3′-yl)benzo[b]thiophene-2-carboxamide hydrochloride]", "Ki": "> 10000"}
{"smiles": "Cc1ccc2cc(C(=O)N[C@@H]3C4CCN(CC4)C34CC4)sc2c1C1CC1", "note": "[(R)-196, (R)-7-cyclopropyl-6-methyl-N-(1′-azaspiro[cyclopropane-1,2′-bicyclo[2.2.2]octan]-3′-yl)benzo[b]thiophene-2-carboxamide hydrochloride]", "Ki": 610}
{"smiles": "N#Cc1cccc2cc(C(=O)N[C@@H]3C4CCN(CC4)C34CC4)sc12", "note": "[(R)-160, (R)-7-cyano-N-(1′-azaspiro[cyclopropane-1,2′-bicyclo[2.2.2]octan]-3′-yl)benzo[b]thiophene-2-carboxamide hydrochloride]", "Ki": 260}
{"smiles": "COc1cc2sc(C(=O)N[C@@H]3C4CCN(CC4)C34CC4)cc2cc1F", "note": "[(R)-173, (R)-5-fluoro-6-methoxy-N-(1′-azaspiro[cyclopropane-1,2′-bicyclo[2.2.2]octan]-3′-yl)benzo[b]thiophene-2-carboxamide hydrochloride]", "Ki": "> 10000"}
{"smiles": "COc1c(C)ccc2cc(C(=O)N[C@@H]3C4CCN(CC4)C34CC4)sc12", "note": "[(R)-193, (R)-7-methoxy-6-methyl-N-(1′-azaspiro[cyclopropane-1,2′-bicyclo[2.2.2]octan]-3′-yl)benzo[b]thiophene-2-carboxamide hydrochloride]", "Ki": 6000}
{"smiles": "CC1(C)[C@H](NC(=O)c2cc3cccc(-c4nccs4)c3s2)C2CCN1CC2", "note": "[(R)-129, (R)—N-(2,2-dimethylquinuclidin-3-yl)-7-(thiazol-2-yl)benzo[b]thiophene-2-carboxamide hydrochloride]", "Ki": 440}
{"smiles": "COc1c(F)ccc2cc(C(=O)N[C@@H]3C4CCN(CC4)C34CC4)sc12", "note": "[(R)-197, (R)-6-fluoro-7-methoxy-N-(1′-azaspiro[cyclopropane-1,2′-bicyclo[2.2.2]octan]-3′-yl)benzo[b]thiophene-2-carboxamide hydrochloride]", "Ki": 2800}
{"smiles": "O=C(N[C@@H]1C2CCN(CC2)C12CC2)c1cc2cccc(-c3nccs3)c2s1", "note": "[(R)-181, (R)—N-(1′-azaspiro[cyclopropane-1,2′-bicyclo[2.2.2]octan]-3′-yl)-7-(thiazol-2-yl)benzo[b]thiophene-2-carboxamide hydrochloride]", "Ki": 83}
{"smiles": "COCc1cccc2cc(C(=O)N[C@@H]3C4CCN(CC4)C3(C)C)sc12", "note": "[(R)-143, (R)—N-(2,2-dimethylquinuclidin-3-yl)-7-(methoxymethyl)benzo[b]thiophene-2-carboxamide hydrochloride]", "Ki": 740}
{"smiles": "CC1(C)[C@H](NC(=O)c2cc3cc(F)c(Cl)c(F)c3s2)C2CCN1CC2", "note": "[(R)-125, (R)-6-chloro-N-(2,2-dimethylquinuclidin-3-yl)-5,7-difluorobenzo[b]thiophene-2-carboxamide hydrochloride]", "Ki": "> 10000"}
{"smiles": "CC1(C)[C@H](NC(=O)c2cc3cccc(CC(F)(F)F)c3s2)C2CCN1CC2", "note": "[(R)-127, (R)—N-(2,2-dimethylquinuclidin-3-yl)-7-(2,2,2-trifluoroethyl)benzo[b]thiophene-2-carboxamide hydrochloride]", "Ki": 1100}
{"smiles": "O=C(N[C@@H]1C2CCN(CC2)C12CC2)c1ccc2cc(Cl)sc2c1", "note": "[(R)-203, (R)-2-chloro-N-(1′-azaspiro[cyclopropane-1,2′-bicyclo[2.2.2]octan]-3′-yl)benzo[b]thiophene-6-carboxamide hydrochloride]", "Ki": 2300}
{"smiles": "O=C(N[C@@H]1C2CCN(CC2)C12CC2)c1cc2cc(F)c(Cl)c(F)c2s1", "note": "[(R)-175, (R)-6-chloro-5,7-difluoro-N-(1′-azaspiro[cyclopropane-1,2′-bicyclo[2.2.2]octan]-3′-yl)benzo[b]thiophene-2-carboxamide hydrochloride]", "Ki": "> 10000"}
{"smiles": "CC1(C)[C@H](NC(=O)c2cc3cccc(C4CC4)c3s2)C2CCN1CC2", "note": "[(R)-118, (R)-7-cyclopropyl-N-(2,2-dimethylquinuclidin-3-yl)benzo[b]thiophene-2-carboxamide hydrochloride]", "Ki": 230}
